A word on the MIC: it is the smallest concentration in the dilution series that meets the test's criterion for growth inhibition.

In brackets after ≈: the same amount, converted by molar mass. Residues, ends and D or L forms follow the SMILES beside them. *: point of attachment. βNA = c1ccc2cc(N*)ccc2c1

The text below walks through data of ChEMBL document CHEMBL1255237, “Novel variant of the qnrB gene, qnrB12, in Citrobacter werkmanii” (2008).

What all share (format): functional
The test system of test [1] is Escherichia coli. The test is described as follows: Antimicrobial activity against Escherichia coli TOP10 harboring pCR-Blunt2-TOPO carrying qnrB12 gene of Citrobacter werkmanii isolate CIT1 by broth macrodilution method.
The subject of test [2] is Escherichia coli. Kind of test: Antimicrobial activity against Escherichia coli TOP10 harboring pCR-Blunt2-TOPO carrying qnrB12 gene of Citrobacter werkmanii isolate CIT3 by broth macrodilution method in presence of 64 ug/ml Phe-Arg-beta-naphthylamide.
Test [3] deals with Escherichia coli. The test is described as follows: Antimicrobial activity against Escherichia coli TOP10 harboring pCR-Blunt2-TOPO carrying qnrB12 gene of Citrobacter werkmanii isolate CIT3 by broth macrodilution method.
In test [4] the test system is Citrobacter werkmanii. The test is described as follows: Antimicrobial activity against nalidixic acid-resistant Citrobacter werkmanii isolate CIT1 harboring gyrA Thr83Ile, parC Ser57Thr mutant gene and qnrB12 gene by broth macrodilution method in presence of 64 ug/ml Phe-Arg-beta-naphthylamide.
For test [5], the system named is Citrobacter werkmanii. The test is described as follows: Antimicrobial activity against Citrobacter werkmanii isolate CIT2 harboring qnrB12 gene by broth macrodilution method.
Test [6] concerns Escherichia coli. Kind of test: Antimicrobial activity against Escherichia coli TOP10 harboring empty vector pCR-Blunt2-TOPO by broth macrodilution method.
The test system of test [7] is Escherichia coli. The test is described as follows: Antimicrobial activity against Escherichia coli TOP10 harboring pCR-Blunt2-TOPO carrying qnrB12 gene of Citrobacter werkmanii isolate CIT2 by broth macrodilution method.
The test system of test [8] is Escherichia coli. Kind of test: Antimicrobial activity against Escherichia coli TOP10 by broth macrodilution method.
Test [9] concerns Escherichia coli. Kind of test: Antimicrobial activity against Escherichia coli TOP10 by broth macrodilution method in presence of 64 ug/ml Phe-Arg-beta-naphthylamide.
The subject of test [10] is Escherichia coli. Kind of test: Antimicrobial activity against Escherichia coli TOP10 harboring pCR-Blunt2-TOPO carrying qnrB12 gene of Citrobacter werkmanii isolate CIT1 by broth macrodilution method in presence of 64 ug/ml Phe-Arg-beta-naphthylamide.
In test [11] the test system is Escherichia coli. The test is described as follows: Antimicrobial activity against Escherichia coli TOP10 harboring empty vector pCR-Blunt2-TOPO by broth macrodilution method in presence of 64 ug/ml Phe-Arg-beta-naphthylamide.
For test [12], the system named is Citrobacter werkmanii. Kind of test: Antimicrobial activity against nalidixic acid-resistant Citrobacter werkmanii isolate CIT1 harboring gyrA Thr83Ile, parC Ser57Thr mutant gene and qnrB12 gene by broth macrodilution method.
The subject of test [13] is Citrobacter werkmanii. Kind of test: Antimicrobial activity against Citrobacter werkmanii isolate CIT2 harboring qnrB12 gene by broth macrodilution method in presence of 64 ug/ml Phe-Arg-beta-naphthylamide.
For test [14], the system named is Citrobacter werkmanii. The test is described as follows: Antimicrobial activity against Citrobacter werkmanii isolate CIT3 harboring parC Leu88Gln mutant and qnrB12 gene by broth macrodilution method.
The test system of test [15] is Citrobacter werkmanii. The test is described as follows: Antimicrobial activity against Citrobacter werkmanii isolate CIT3 harboring parC Leu88Gln mutant gene and qnrB12 gene by broth macrodilution method in presence of 64 ug/ml Phe-Arg-beta-naphthylamide.
Test [16] concerns Escherichia coli. The test is described as follows: Antimicrobial activity against Escherichia coli TOP10 harboring pCR-Blunt2-TOPO carrying qnrB12 gene of Citrobacter werkmanii isolate CIT2 by broth macrodilution method in presence of 64 ug/ml Phe-Arg-beta-naphthylamide.

On to `O=C(O)c1cn(C2CC2)c2cc(N3CCNCC3)c(F)cc2c1=O` [CIPROFLOXACIN], for which the MIC against Escherichia coli [1] came to 0.0625 µg/mL (≈ 0.189 µM); in the test with Escherichia coli [2], 0.0625 µg/mL; against Escherichia coli [3], 0.0625 µg/mL (≈ 0.189 µM); with Citrobacter werkmanii [4] it was 0.25 µg/mL; against Citrobacter werkmanii [5], 0.5 µg/mL (≈ 1.51 µM); against Escherichia coli [6], 0.00195 µg/mL (≈ 0.00589 µM). Moreover, the MIC in the test with Escherichia coli [7] is 0.0625 µg/mL (≈ 0.189 µM); with Escherichia coli [8], 0.00195 µg/mL (≈ 0.00589 µM); with Escherichia coli [9], 0.00195 µg/mL; in the test on Escherichia coli [10], 0.0625 µg/mL; in the test with Escherichia coli [11], 0.00195 µg/mL; in the test on Citrobacter werkmanii [12], 1 µg/mL (≈ 3.02 µM). In addition, the MIC with Citrobacter werkmanii [13] worked out at 0.0312 µg/mL; with Citrobacter werkmanii [14] it was 0.0625 µg/mL (≈ 0.189 µM); in the test with Citrobacter werkmanii [15], 0.0312 µg/mL; in the test on Escherichia coli [16], 0.0625 µg/mL.
For `CCn1cc(C(=O)O)c(=O)c2ccc(C)nc21` [NALIDIXIC ACID], the MIC against Escherichia coli [1] was determined as 8 µg/mL (≈ 34.4 µM); with Escherichia coli [2] it was 1 µg/mL; in the test with Escherichia coli [3], 8 µg/mL (≈ 34.4 µM); with Citrobacter werkmanii [4] it was 16 µg/mL; in the test with Citrobacter werkmanii [5], 8 µg/mL (≈ 34.4 µM); with Escherichia coli [6], 2 µg/mL (≈ 8.61 µM). Further, the MIC in the test on Escherichia coli [7] was 8 µg/mL (≈ 34.4 µM); with Escherichia coli [8] it was 2 µg/mL (≈ 8.61 µM); in the test on Escherichia coli [9] it was 0.25 µg/mL; in the test with Escherichia coli [10], 1 µg/mL; in the test on Escherichia coli [11] it was 0.25 µg/mL; against Citrobacter werkmanii [12], greater than 256 µg/mL. Also, the MIC with Citrobacter werkmanii [13] worked out at 0.5 µg/mL; in the test with Citrobacter werkmanii [14], 8 µg/mL (≈ 34.4 µM); with Citrobacter werkmanii [15], 0.25 µg/mL; with Escherichia coli [16] it was 1 µg/mL.
Regarding `N=C(N)NCCC[C@H](NC(=O)[C@@H](N)Cc1ccccc1)C(=O)Nc1ccc2ccccc2c1` [PABETAN] (H-Phe-Arg-βNA), the minimal inhibitory concentration (MIC) is greater than 256 µg/mL against Escherichia coli [1]; greater than 256 µg/mL against Escherichia coli [3]; 256 µg/mL (≈ 573 µM) against Citrobacter werkmanii [5]; greater than 256 µg/mL against Escherichia coli [6]; greater than 256 µg/mL with Escherichia coli [7]; greater than 256 µg/mL with Escherichia coli [8]. Moreover, the minimum inhibitory concentration (MIC) in the test with Citrobacter werkmanii [12] is greater than 256 µg/mL; in the test on Citrobacter werkmanii [14] it was 256 µg/mL (≈ 573 µM).
